The values that follow come from PMC9312238, “Novel Organoselenium Redox Modulators with Potential Anticancer, Antimicrobial, and Antioxidant Activities” (Antioxidants, 2022).

Usually MIC stands for the lowest concentration that inhibits growth of the organism.

One test concerns Candida albicans. Put plainly: MIC by microdilution, C. albicans. Type of test: cell-based. Particulars: read-out: MIC (μM) C. albicans. The method, then: The antimicrobial activities of the OSe compounds were evaluated against C. albicans yeast, as well as E. coli and S. bacteria, employing the agar well diffusion assay. Furthermore, the MICs (in µM) were determined by the microdilution method according to the reported protocol. More details are in the Supporting Information. […]
1.1.1. The antimicrobial activity
The antimicrobial activities of the OSe compounds were evaluated against C. albicans yeast as well as E. coli gram-negative and S. aureus gram-positive bacteria employing the agar well diffusion assay. Briefly, a concentration of 1 mM was prepared for each compound by dissolving in DMSO. Paper discs of standard size […] were steri-lized in an autoclave and soaked in 20 µL of the test compounds, and placed in the Petri dishes, which in turn contain a nutrient media (agar 20 g, peptone 5 g, and beef extract 3 g) seeded with the dedicated strain. Incubation lasted for 24 h at 36
Furthermore, the MICs (in µM) were determined by the microdilution method according to the reported protocol. […]
Inhibition%= (Ablank-Asample)/(Ablank)*100. (1)
Background: In broth dilution the organism is exposed to a series of concentrations in liquid medium.

The test system of the next test is Escherichia coli. Put plainly: MIC by microdilution, E. coli. Format: cell-based. The method, then: The antimicrobial activities of the OSe compounds were evaluated against C. albicans yeast, as well as E. coli and S. bacteria, employing the agar well diffusion assay. Furthermore, the MICs (in µM) were determined by the microdilution method according to the reported protocol. More details are in the Supporting Information.
1.1. The biological assays
1.1.1. The anticancer activity
The breast adenocarcinoma (MCF-7), Hepatocellular carcinoma (HEPG-2), and nor-mal fibroblast (WI-38) cells were obtained from ATCC via Holding company for biological products and vaccines (VACSERA), Cairo, Egypt. The reagents RPMI-1640 medium, MTT, DMSO, and fetal bovine serum was obtained from Sigma Aldrich. Dulbecco’s modified Eagle’s medium was used as the culture medium for the cells, and the cytotoxicity was evaluated using the reported MTT assay. […]
Cell lines were cultured in RPMI-1640 medium with 10% fetal bovine serum. […] The colorimetric assay is measured and recorded at an absorbance of 570 nm using a plate reader (EXL 800, USA). The percentage of the relative cell viability was calculated as (A570 of treated samples/A570 of the untreated sample) X 100. […]
The antimicrobial activities of the OSe compounds were evaluated against C. albicans yeast as well as E. coli gram-negative and S. aureus gram-positive bacteria employing the agar well diffusion assay. […]

In brackets after ≈: the same amount, converted by molar mass. Like-named read-outs stand apart in the source and are kept apart here.

For the molecule “2-((4-(2-(3-hydroxynaphthalen-1(4H)-ylidene)hydrazinyl)phenyl)selanyl)-N-phenylacetamide [Compound 9]”, the MIC in the test on Candida albicans (microdilution) stood at 2 µM. Moreover, the “MIC (μM) E. coli” value in the test on Escherichia coli (microdilution) amounted to 0.5 µM.
As to `Nc1ccc([Se]CC(=O)N[C@@H](Cc2c[nH]c3ccccc23)C(=O)O)cc1` [Compound 6, (2-((4-aminophenyl)selanyl)acetyl)tryptophan], the MIC came to 8 µM (≈ 3.33 µg/mL) in the test on Candida albicans (Candida albicans) and 1 µM (≈ 0.416 µg/mL) in the test with Escherichia coli (Escherichia coli, read-out: MIC (μM) E. coli).
